The values that follow come from the supplement of paper PMC10307832.

Holding throughout (assay): relative viability (nuclei count vs DMSO), 5 days (fraction); higher = more cells survive
Compound in the assay “Ruxolitinib + Tozasertib”: N#CC[C@H](C1CCCC1)n1cc(-c2ncnc3[nH]ccc23)cn1 [Ruxolitinib] + Cc1cc(Nc2cc(N3CCN(C)CC3)nc(Sc3ccc(NC(=O)C4CC4)cc3)n2)n[nH]1 [Tozasertib] (partner 0.1 µM)
The essentials: (§1)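 Five library-drug doses in √10 steps were combined with a fixed anchor-drug dose, or a single drug was given alone, by pin tool to lung cancer cell lines in 1536-well plates the day after seeding. Nuclei were stained and counted after 5 days. Relative viability is the nuclei count in treated wells over that in vehicle wells, taken as the median of duplicate plates.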

Compound in the assay “Vismodegib + Pemetrexed”: CS(=O)(=O)c1ccc(C(=O)Nc2ccc(Cl)c(-c3ccccn3)c2)c(Cl)c1 [Vismodegib] + Nc1nc2[nH]cc(CCc3ccc(C(=O)N[C@@H](CCC(=O)O)C(=O)O)cc3)c2c(=O)[nH]1 [Pemetrexed] (partner 0.2 µM)
The essentials: as §1

Compound in the assay “Vismodegib + Alpelisib”: CS(=O)(=O)c1ccc(C(=O)Nc2ccc(Cl)c(-c3ccccn3)c2)c(Cl)c1 [Vismodegib] + Cc1nc(NC(=O)N2CCC[C@H]2C(N)=O)sc1-c1ccnc(C(C)(C)C(F)(F)F)c1 [Alpelisib] (partner 2 µM)
The method, boiled down:
as §1

Compound in the assay “VE-821 + Navitoclax”: CS(=O)(=O)c1ccc(-c2cnc(N)c(C(=O)Nc3ccccc3)n2)cc1 [VE-821] + CC1(C)CCC(c2ccc(Cl)cc2)=C(CN2CCN(c3ccc(C(=O)NS(=O)(=O)c4ccc(N[C@H](CCN5CCOCC5)CSc5ccccc5)c(S(=O)(=O)C(F)(F)F)c4)cc3)CC2)C1 [Navitoclax] (partner 0.5 µM)
The essentials: as §1

Take UMC-11: the relative viability came to 0.206 with Ruxolitinib + Tozasertib (first compound 0.08 µM); 0.206 in the assay with Ruxolitinib + Tozasertib (first compound 0.253 µM); 0.203 with Ruxolitinib + Tozasertib (first compound 0.8 µM); 0.214 with Ruxolitinib + Tozasertib (first compound 2.53 µM); 0.2 with Ruxolitinib + Tozasertib (first compound 8 µM); 0.61 with Vismodegib + Pemetrexed (first compound 0.08 µM). In addition, the relative viability turned out to be 0.807 with Vismodegib + Pemetrexed (first compound 0.253 µM); 0.768 with Vismodegib + Pemetrexed (first compound 0.8 µM); 0.739 with Vismodegib + Pemetrexed (first compound 2.53 µM); 0.868 with Vismodegib + Pemetrexed (first compound 8 µM); 1.01 with Vismodegib + Alpelisib (first compound 0.08 µM); 1.01 in the assay with Vismodegib + Alpelisib (first compound 0.253 µM). Moreover, the relative viability in the assay with Vismodegib + Alpelisib (first compound 0.8 µM) was determined as 1.05; in the assay with Vismodegib + Alpelisib (first compound 2.53 µM), 0.957; with Vismodegib + Alpelisib (first compound 8 µM), 0.952; with VE-821 + Navitoclax (first compound 0.08 µM), 0.358; with VE-821 + Navitoclax (first compound 0.253 µM), 0.344; with VE-821 + Navitoclax (first compound 0.8 µM), 0.332. Further, the figures for the relative viability with VE-821 + Navitoclax (first compound 2.53 µM) and in the assay with VE-821 + Navitoclax (first compound 8 µM) were 0.302 and 0.222, respectively.
